Values of other authors as cited in US11938211B2, “Process for coloring keratinous material comprising the use of an organosilicon compound, an effect pigment, a further coloring compound and a film-forming polymer I” (Henkel AG & Co. KGaA, priority 2019, dated 2024).

Conditions: 25° C.

Structure (SMILES)	solubility in water	solubility in water (in words)
CCN(Cc1cccc(S(=O)(=O)[O-])c1)c1ccc(C(=C2C=CC(=[N+](CC)Cc3cccc(S(=O)(=O)[O-])c3)C=C2)c2ccccc2S(=O)(=O)[O-])cc1.[Na+].[Na+] [Acid Blue 9]	more than 20 % by weight	
O=S(=O)([O-])c1ccc(N=Nc2c(O)ccc3ccccc23)cc1.[Na+] [Acid Orange 7, sodium salt of 4-[(2-hydroxy-1-naphthyl)azo]benzene sulphonate]	more than 7 g/L	
Nc1cc(S(=O)(=O)[O-])cc2cc(S(=O)(=O)[O-])c(N=Nc3ccccc3)c(O)c12.[Na+].[Na+] [Acid Red 33, disodium salt of 5-amino-4-hydroxy-3-(phenylazo)-naphthalene-2,7-disulphonate]	2.5 mg/mL	
O=C([O-])c1c(Cl)c(Cl)c(Cl)c(Cl)c1-c1c2c(Br)cc(=O)c(Br)c-2oc2c(Br)c(O)cc(Br)c12.O=C([O-])c1c(Cl)c(Cl)c(Cl)c(Cl)c1-c1c2c(Br)cc(=O)c(Br)c-2oc2c(Br)c(O)cc(Br)c12.[Na+].[Na+] [Acid Red 92, disodium salt of 3,4,5,6-tetrachloro-2-(1,4,5,8-tetrabromo-6-hydroxy-3-oxoxanthen-9-yl)benzoic acid]	greater than 10 g/L	
O=C([O-])C1=NN(c2ccc(S(=O)(=O)[O-])cc2)C(=O)C1N=Nc1ccc(S(=O)(=O)[O-])cc1.[Na+].[Na+].[Na+] (centres unmarked) [Acid Yellow 23, trisodium salt of 4,5-dihydro-5-oxo-1-(4-sulfophenyl)-4-((4-sulfophenyl)azo)-1H-pyrazole-3-carboxylic acid]		highly soluble
